pEC50: −log10 of the molar value.
molecular target: T1, human IL-17AA (Homo sapiens, UniProt Q16552); experiment: IL-8 release assay in human epithelial keratinocytes adult (HEKa); format: cell-based; settings: HEKa cells, 3 ng/mL HEK-human IL-17AA + 10 ng/mL human TNFalpha; read-out: Rel EC50 IL-8 release assay
T1 construct: host or cells: HEK (human embryonic kidney) cells
T1 sequence (Q16552 24-155): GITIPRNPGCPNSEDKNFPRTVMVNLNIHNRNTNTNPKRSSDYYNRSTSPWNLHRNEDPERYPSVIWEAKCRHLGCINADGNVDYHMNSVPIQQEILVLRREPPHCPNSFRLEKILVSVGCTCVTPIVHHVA
Description: Example 138: IL-8 Release Assay in Human Epithelial Keratinocytes Adult (HEKa)
Keratinocytes were seeded at 3500 cells/well in 384-well ViewPlates (Perkin Elmer) in Epilife medium (Thermo Fisher) containing human keratinocyte growth supplement (HKGS) without hydrocortisone and incubated in a humid incubator at 37° C. 5% CO2, overnight. The following day growth medium was removed and 25 μl fresh Epilife medium added. 75 nL test compound in 100% DMSO was added into each well reserved for test compounds, by the use of acoustic pipetting. The remaining wells received an equal volume of DMSO only, as vehicle control, or terfenadine in DMSO, as a positive control for any cytotoxic compounds. Subsequently, another 25 μL Epilife medium was added to each well. Finally, wells containing test compounds and wells prepared to yield maximum stimulation received […] of 9 ng/mL recombinant, human embryonic kidney cell (HEK)-derived human IL-17AA+30 ng/mL human TNF-alpha, in Epilife medium. Wells prepared to define 100% inhibition of IL-17 effects received 25 μL of 30 ng/mL human TNF-alpha alone, in Epilife medium. Final concentrations were 3 ng/mL HEK-human IL-17AA+10 ng/mL human TNFalpha (maximum stimulation) and 10 ng/mL human TNFalpha alone (100% inhibition, Emax), respectively. Cells were incubated for 68-72 hours in the incubator. IL-8 released from the cells was measured by the use of a commercial homogenous time-resolved fluorescence (HTRF) assay (CisBio). 2 μL cell culture supernatant was transferred to a 384-well Proxiplate. 5 μL HTRF reagent was added and the plates incubated sealed in the dark for 3-22 hours at room temperature. Time-resolved fluorescence was read at 665 vs 620 nm, with excitation at 320 nm, and IL-8 levels calculated as percent of controls. Reduction of the amount of secreted IL-8 indicates decreased IL-17 signaling. Concentration response curves were fitted by the use of a four-parameter logistic equation. Relative IC50 and Emax were reported from curves showing acceptable fit (r^2>0.9). Cytotoxicity was measured in the cell-containing Viewplates following addition of 7 μL PrestoBlue (Thermo Fisher) and incubation for 2.5-3 hours at room temperature, by measuring fluorescence at 615 nm (excitation at 535 nm). Fluorescence was directly proportional to the amount of metabolic activity. Reduction of fluorescence signal indicated cytotoxicity.
Compounds of the present invention were tested in the IL-8 release assay in human epithelial keratinocytes.
Compounds having a Relative EC50 of X; wherein X<100 nM; are indicated with *
Compounds having a Relative EC50 of X; wherein 100 nM<X<1000 nM; are indicated with **
Compounds having a Relative EC50 of X; wherein 1000 nM<X; are indicated with ***

| pEC50 | SMILES |
| --- | --- |
| 6.00 to 7.00 | Cc1n[nH]c(C)c1-c1ccc(NC(=O)[C@@H](NC(=O)c2ccnn2C)C(C)C2CCCC2)cc1 (mixture of isomers) [Example 221] |
| 6.00 to 7.00 | Cc1n[nH]c(C)c1-c1ccc(NC(=O)C(NC(=O)c2ccnn2C(C)C)C2CCC3(CC2)CC3)cc1 (racemic) [Example 20, N-[2-[4-(3,5-dimethyl-1H-pyrazol-4-yl)anilino]-2-oxo-1-spiro[2.5]octan-6-yl-ethyl]-2-isopropyl-pyrazole-3-carboxamide] |
| 6.00 to 7.00 | Cc1n[nH]c(C)c1-c1ccc(NC(=O)C(NC(=O)c2ccnn2C)C2CCC3(CC2)CC3)cc1 (racemic) [Example 21, N-[2-[4-(3,5-dimethyl-1H-pyrazol-4-yl)anilino]-2-oxo-1-spiro[2.5]octan-6-yl-ethyl]-2-methyl-pyrazole-3-carboxamide] |
| > 7.00 | Cc1n[nH]c(C)c1-c1ccc(NC(=O)C(NC(=O)c2ccnn2C(C)C)C(C2CC2)C2CC2)cc1 (racemic) [Example 31, N-[1-(dicyclopropylmethyl)-2-[4-(3,5-dimethyl-1H-pyrazol-4-yl)anilino]-2-oxo-ethyl]-2-isopropyl-pyrazole-3-carboxamide] |
| 6.00 to 7.00 | Cc1n[nH]c(C)c1-c1ccc(NC(=O)C(NC(=O)c2ccnn2C)C2CCCC2C)cc1 (racemic) [Example 252, N-[2-[4-(3,5-dimethyl-1H-pyrazol-4-yl)anilino]-1-(2-methylcyclopentyl)-2-oxo-ethyl]-2-methyl-pyrazole-3-carboxamide] |
| < 6.00 | Cc1n[nH]c(C)c1-c1ccc(NC(=O)C(NC(=O)c2ccnn2C(C)C)C(C2CC2)C2CC2)cc1 (single isomer, unassigned) [Example 33, N-[1-(dicyclopropylmethyl)-2-[4-(3,5-dimethyl-1H-pyrazol-4-yl)anilino]-2 oxo-ethyl]-2-isopropyl-pyrazole-3-carboxamide] |
| < 6.00 | Cc1ncn(C)c1-c1ccc(NC(=O)C(NC(=O)OC(C)(C)C)C2CCC(F)(F)CC2)cc1 (single isomer, unassigned) [Example 85, tert-butyl N-[1-(4,4-difluorocyclohexyl)-2-[4-(3,5-dimethylimidazol-4-yl)anilino]-2-oxo-ethyl]carbamate] |
| < 6.00 | Cc1ncn(C)c1-c1ccc(NC(=O)C(NC(=O)OC(C)(C)C)C2CCC(F)(F)CC2)cc1 (single isomer, unassigned) [Example 86, tert-butyl N-[1-(4,4-difluorocyclohexyl)-2-[4-(3,5-dimethylimidazol-4-yl)anilino]-2-oxo-ethyl]carbamate] |
| 6.00 to 7.00 | Cc1n[nH]c(C)c1-c1ccc(NC(=O)[C@@H](NC(=O)c2ccnn2C(C)CO)C2CCCCC2)cc1 (single isomer, unassigned) [Example 104] |
| 6.00 to 7.00 | Cc1n[nH]c(C)c1-c1ccc(NC(=O)[C@@H](NC(=O)c2ccnn2C(C)CO)C2CCCCC2)cc1 (single isomer, unassigned) [Example 105] |
| > 7.00 | Cc1n[nH]c(C)c1-c1ccc(NC(=O)C(NC(=O)c2ccnn2CCC(C)O)C2CCCCCCC2)cc1 (single isomer, unassigned) [Example 145, N-[1-cyclooctyl-2-[4-(3,5-dimethyl-1H-pyrazol-4-yl)anilino]-2-oxo-ethyl]-2-(3-hydroxybutyl)pyrazole-3-carboxamide] |

The remaining lines, values behind:

| SMILES | pEC50 |
| --- | --- |
| Cc1n[nH]c(C)c1-c1ccc(NC(=O)C(NC(=O)c2ccnn2C)[C@@H]2CCOc3ccccc32)cc1 (mixture of isomers) [Example 26, 1:3 mixture of N-[(1S)-1-[(4R)-chroman-4-yl]-2-[4-(3,5-dimethyl-1H-pyrazo 4-yl)anilino]-2-oxo-ethyl]-2-methyl-pyrazole-3-carboxamide and N-[(1R)-1-[(4R)-chroman-4-yl]-2-[4-(3,5-dimethyl-1H-pyrazol-4-yl)anilino]-2-oxo-ethyl]-2-methyl-pyrazole-3-carboxamide] | < 6.00 |
| Cc1n[nH]c(C)c1-c1ccc(NC(=O)C(NC(=O)c2ccnn2C(C)C(C)O)C(C2CC2)C2CC2)cc1 (mixture of isomers) [Example 161, N-[(1S)-1-(dicyclopropylmethyl)-2-[4-(3,5-dimethyl-1H-pyrazol-4-yl)anilino]-2-oxo-ethyl]-2-[(1S,25) and (1R,2R)-2-hydroxy-1-methyl-propyl]pyrazole-3-carboxamide] | < 6.00 |
| Cc1n[nH]c(C)c1-c1ccc(NC(=O)[C@@H](NC(=O)c2ccnn2C)C(C)CC(C)(C)C)cc1 (mixture of isomers) [Example 196] | > 7.00 |
| Cc1n[nH]c(C)c1-c1ccc(NC(=O)C(NC(=O)c2ccnn2C)C(C(F)(F)F)C(F)(F)F)cc1 (racemic) [Example 14] | < 6.00 |
| CCn1nccc1C(=O)NC(C(=O)Nc1ccc(-c2c(C)n[nH]c2C)cc1)C(C1CCC1)C1CCC1 (racemic) [Example 35, N-[1-[di(cyclobutyl)methyl]-2-[4-(3,5-dimethyl-1H-pyrazol-4-yl)anilino]-2-oxo-ethyl]-2-ethyl-pyrazole-3-carboxamide] | > 7.00 |
| Cc1n[nH]c(C)c1-c1ccc(NC(=O)C(NC(=O)c2ccnn2C(C)C)C(C2CCC2)C2CCC2)cc1 (racemic) [Example 38, N-[1-[di(cyclobutyl)methyl]-2-[4-(3,5-dimethyl-1H-pyrazol-4-yl)anilino]-2-oxo-ethyl]-2-isopropyl-pyrazole-3-carboxamide] | > 7.00 |
| Cc1n[nH]c(C)c1-c1ccc(NC(=O)C(NC(=O)c2ccnn2C(C)C)C(C2CC(F)(F)C2)C2CC(F)(F)C2)cc1 (racemic) [Example 294, N-[1-[bis(3,3-difluorocyclobutyl)methyl]-2-[4-(3,5-dimethyl-1H-pyrazol-4-yl)anilino]-2-oxo-ethyl]-2-isopropyl-pyrazole-3-carboxamide] | 6.00 to 7.00 |
| CCn1nccc1C(=O)NC(C(=O)Nc1ccc(-c2c(C)n[nH]c2C)cc1)C(C1CCC1)C1CCC1 (single isomer, unassigned) [Example 37, N-[1-[di(cyclobutyl)methyl]-2-[4-(3,5-dimethyl-1H-pyrazol-4-yl)anilino]-2-oxo-ethyl]-2-ethyl-pyrazole-3-carboxamide] | 6.00 to 7.00 |
| Cc1n[nH]c(C)c1-c1ccc(NC(=O)C(NC(=O)c2ccnn2C(C)C)C(C2CCC2)C2CCC2)cc1 (single isomer, unassigned) [Example 40, N-[1-[di(cyclobutyl)methyl]-2-[4-(3,5-dimethyl-1H-pyrazol-4-yl)anilino]-2-oxo-ethyl]-2-isopropyl-pyrazole-3-carboxamide] | 6.00 to 7.00 |
| Cc1n[nH]c(C)c1-c1ccc(NC(=O)[C@@H](NC(=O)c2ccnn2[C@@H](C)CO)C(C2CC2)C2CC2)cc1 (single isomer, unassigned) [Example 119] | > 7.00 |
| Cc1n[nH]c(C)c1-c1ccc(NC(=O)[C@@H](NC(=O)c2ccnn2C(C)CO)C(C2CCC2)C2CCC2)cc1 (single isomer, unassigned) [Example 123] | > 7.00 |
| Cc1n[nH]c(C)c1-c1ccc(NC(=O)[C@@H](NC(=O)c2ccnn2C(C)CO)C(C2CCC2)C2CCC2)cc1 (single isomer, unassigned) [Example 124] | > 7.00 |
| Cc1n[nH]c(C)c1-c1ccc(NC(=O)C(NC(=O)c2ccnn2CCC(C)O)C2CCCCCCC2)cc1 (single isomer, unassigned) [Example 142, N-[1-cyclooctyl-2-[4-(3,5 dimethyl-1H-pyrazol-4-yl)anilino]-2-oxo-ethyl]-2-(3-hydroxybutyl)pyrazole-3-carboxamide] | 6.00 to 7.00 |
| Cc1n[nH]c(C)c1-c1ccc(NC(=O)C(NC(=O)c2ccnn2CCC(C)O)C2CCCCCCC2)cc1 (single isomer, unassigned) [Example 143, N-[1-cyclooctyl-2-[4-(3,5-dimethyl-1H-pyrazol-4-yl)anilino]-2-oxo-ethyl]-2-(3-hydroxybutyl)pyrazole-3-carboxamide] | 6.00 to 7.00 |
| Cc1n[nH]c(C)c1-c1ccc(NC(=O)C(NC(=O)c2ccnn2CCC(C)O)C2CCCCCCC2)cc1 (single isomer, unassigned) [Example 144, N-[1-cyclooctyl-2-[4-(3,5-dimethyl-1H-pyrazol-4-yl)anilino]-2-oxo-ethyl]-2-(3-hydroxybutyl)pyrazole-3-carboxamide] | > 7.00 |
